Experimental data taken from patent US11492346B2, “Benzisoxazole sulfonamide derivatives” (Pfizer Inc., priority 2019, dated 2022).
Like-named read-outs stand apart in the source and are kept apart here.

Assays:
Assay type in all cases: biochemical
[1] = target: KAT6A (Homo sapiens (Human), UniProt Q92794); assay: KAT assay (SAMDI mass spectrometry), KAT6A;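 further: Baculovirus-expressed KAT6A acetylating histone H3 (1-21) peptide (2 µM), 30-60 min at room temperature, % product conversion fitted to Morrison equation for tight-binding competitive inhibitors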
[2] = target: KAT6B (Homo sapiens (Human), UniProt Q8WYB5); assay: KAT assay (SAMDI mass spectrometry), KAT6B
Method: (§1) Prepare 10 mM stock solutions in 100% DMSO from solid material • 2. Serial dilute 10 mM, 1 mM or 0.1 mM compound stocks 3-fold in 100% DMSO for 11-point dose response
(§2) Prepare 1× assay buffer containing 10 mM Tris HCL pH 8.0, 2.5 mM NaCl, 0.5 mM EDTA, 0.005% BSG and 0.02% Tween-20 • 2. Dilute Histone peptide (CPC Scientific) and AcCoA (Sigma) together in assay buffer to 2×. • 3. Dilute KAT enzyme in assay buffer to 2×.
(§3) Enzyme reaction • 1. Final reaction conditions for each KAT assay in a 20 ul assay reaction volume: • i. KAT5 25 nM, 1 uM AcCoA, 2 uM H4 1-21 peptide, 30-minute reaction • ii. KAT6A 15 nM, 1 uM AcCoA, 2 uM H3 1-21 peptide, 45-minute reaction • iii. KAT6B 25 nM, 1 uM AcCoA, 2 uM H3 1-21 peptide, 60-minute reaction • iv. KAT7 12.5 nM, 1 uM AcCoA, 2 uM H3 1-21 peptide, 45-minute reaction • v. KAT8 15 nM, 1 uM AcCoA, 2 uM H3 1-21 peptide, 45-minute reaction • 2. Add 0.5 ul of diluted compound to the assay plate (384-well V-bottom polypropylene plates) or 0.5 ul of DMSO for control wells. • 3. Add 10 ul of 2× Histone peptide/2×AcCoA mix to the assay plate. • 4. Add 10 ul of 2× enzyme to the assay plate. • 5. Stop the reaction after the indicated time with the addition of 2 ul of 5% formic acid • 6. Each reaction was analyzed using self-assembled monolayer desorption/ionization time-of-flight mass spectrometry (Mrksich, Milan (2008) Mass Spectrometry of Self-Assembled Monolayers: A New Tool for Molecular Surface Science ACS Nano 2008 2 (1), 7-18; SAMDI Tech, Inc. (Chicago, Ill.)). • 7. Area under the curve (AUC) for both substrate and product peaks was determined for KAT5 at M.W. 2561 [Substrate+H]^+ and 2603 [Product+H]^+ with a +/−1 Da tolerance, respectively • 8. Area under the curve (AUC) for both substrate and product peaks was determined for KAT6a, KAT6B, KAT7 and KAT8 at M.W. 2723 [Substrate+H]^+ and 2765 [Product+H]^+ with a +/−1 Da tolerance, respectively. […] Percent conversion to product was calculated by: AUCProduct/(AUCsubstrate+AUCProduct).
(§4) IC50 values were determined by fitting the % conversion at each inhibitor concentration to the 4-parameter IC50 equation using Pfizer proprietary curve fitting software. • 2. Ki values were determined by fitting the % conversion at each inhibitor concentration to the Morrison equation for tightbinding competitive inhibitors using Pfizer proprietary curve fitting software.
(§5) KAT enzymes were expressed using a baculovirus expression system and purified at Pfizer, La Jolla. […] Acetyl coenzyme A was purchased from Sigma-Aldrich (St. Louis, Mo.). All other biochemical reagents were purchased from Sigma-Aldrich or ThermoFisher Scientific (Waltham, Mass.).
(§6) KAT assays were performed at room temperature in assay buffer containing 1 μM AcCoA, 2 μM histone peptide, 10 mM Tris HCL pH 8.0, 2.5 mM NaCl, 0.5 mM EDTA, 0.005% BSG and 0.02% Tween-20. 10 ul of 2× Histone peptide/AcCoA mix was added to a 384-well V-bottom polypropylene assay plate containing 0.5 ul of serially diluted test compound in 100% dimethyl sulfoxide (DMSO). To start the reaction, 10 ul of 2× enzyme solution was added to the assay plate. KAT assays were terminated after 30-60 minutes with the addition of 2 ul of 5% formic acid. All assays used histone H3 (1-21) peptide except for the KAT5 assay which used histone H4 (1-21) peptide. The final enzyme concentration for each KAT was as follows: KAT5, 25 nM; KAT6A, 15 nM; KAT6B, 25 nM; KAT7, 12.5 nM; KAT8 15 nM. Each reaction was analyzed using self-assembled monolayer desorption/ionization time-of-flight mass spectrometry (Mrksich, Milan (2008) Mass Spectrometry of Self-Assembled Monolayers: A New Tool for Molecular Surface Science ACS Nano 2008 2 (1), 7-18; SAMDI Tech, Inc. (Chicago, Ill.)).
(§7) Area under the curve (AUC) for both substrate and product peaks was determined for KAT5 at M.W. 2561 [Substrate+H]^+ and 2603 [Product+H]^+ with a +/−1 Da tolerance, respectively.

[3] = target: KAT5 (Homo sapiens (Human), UniProt Q92993); assay: KAT assay (SAMDI mass spectrometry), KAT5;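 further: Baculovirus-expressed KAT5 acetylating a histone H4 peptide at room temperature, read as percent conversion to product, Ki from a Morrison tight-binding competitive fit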
Method: as §1, §2, §3, §4, §5, §6, §7

[4] = target: KAT7 (Homo sapiens (Human), UniProt O95251); assay: KAT assay (SAMDI mass spectrometry), KAT7;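 further: Baculovirus-expressed enzyme acetylating a histone peptide at room temperature, percent conversion from product and substrate peak areas, Ki from a Morrison tight-binding competitive fit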
[5] = target: KAT8 (Homo sapiens (Human), UniProt Q9H7Z6); assay: KAT assay (SAMDI mass spectrometry), KAT8
Method: as §1, §2, §3, §4, §5, §6, §7

[6] = read-out: KAT6a Ki at 1 μM AcCoA, 1 μM AcCoA
[7] = read-out: KAT6a Ki at 10 μM AcCoA, 10 μM AcCoA
[8] = 25 μM AcCoA, read-out: KAT6b Ki at 25 μM AcCoA
[9] = read-out: KAT5 Ki at 1 μM AcCoA
[10] = read-out: KAT7 Ki at 1 μM AcCoA
[11] = read-out: KAT8 Ki at 1 μM AcCoA

Chain of KAT7 (O95251 whole entry): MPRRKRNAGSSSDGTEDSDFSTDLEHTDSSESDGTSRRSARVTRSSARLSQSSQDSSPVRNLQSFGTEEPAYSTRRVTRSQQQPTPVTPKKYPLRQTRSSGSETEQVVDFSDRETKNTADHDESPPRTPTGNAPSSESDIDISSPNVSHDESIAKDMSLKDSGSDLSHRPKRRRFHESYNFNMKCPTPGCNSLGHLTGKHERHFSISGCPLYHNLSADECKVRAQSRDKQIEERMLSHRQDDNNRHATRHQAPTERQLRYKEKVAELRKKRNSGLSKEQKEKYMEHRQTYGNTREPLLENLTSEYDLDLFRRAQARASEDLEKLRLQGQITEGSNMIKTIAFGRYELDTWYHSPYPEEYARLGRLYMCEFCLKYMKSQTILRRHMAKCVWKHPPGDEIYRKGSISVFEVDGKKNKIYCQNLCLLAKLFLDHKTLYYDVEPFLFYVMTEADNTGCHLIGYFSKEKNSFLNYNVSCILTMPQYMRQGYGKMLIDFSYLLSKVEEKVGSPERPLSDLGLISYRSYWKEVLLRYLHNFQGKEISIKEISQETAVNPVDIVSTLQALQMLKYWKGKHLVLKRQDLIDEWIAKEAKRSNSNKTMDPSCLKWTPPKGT
Chain of KAT8 (Q9H7Z6 whole entry): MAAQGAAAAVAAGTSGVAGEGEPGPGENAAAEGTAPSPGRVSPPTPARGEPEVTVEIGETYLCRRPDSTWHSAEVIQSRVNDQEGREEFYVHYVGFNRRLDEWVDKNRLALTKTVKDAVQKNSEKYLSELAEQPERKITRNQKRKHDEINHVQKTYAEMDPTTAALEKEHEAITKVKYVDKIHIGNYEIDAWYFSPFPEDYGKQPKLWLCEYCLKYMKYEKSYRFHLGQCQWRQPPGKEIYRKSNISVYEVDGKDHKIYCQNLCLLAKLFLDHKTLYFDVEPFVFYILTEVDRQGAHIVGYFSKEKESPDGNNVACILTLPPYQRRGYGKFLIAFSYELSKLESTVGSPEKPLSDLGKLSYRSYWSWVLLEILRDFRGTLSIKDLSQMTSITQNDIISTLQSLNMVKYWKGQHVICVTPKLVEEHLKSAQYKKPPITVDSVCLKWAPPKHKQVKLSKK
Chain of KAT6B (Q8WYB5 whole entry): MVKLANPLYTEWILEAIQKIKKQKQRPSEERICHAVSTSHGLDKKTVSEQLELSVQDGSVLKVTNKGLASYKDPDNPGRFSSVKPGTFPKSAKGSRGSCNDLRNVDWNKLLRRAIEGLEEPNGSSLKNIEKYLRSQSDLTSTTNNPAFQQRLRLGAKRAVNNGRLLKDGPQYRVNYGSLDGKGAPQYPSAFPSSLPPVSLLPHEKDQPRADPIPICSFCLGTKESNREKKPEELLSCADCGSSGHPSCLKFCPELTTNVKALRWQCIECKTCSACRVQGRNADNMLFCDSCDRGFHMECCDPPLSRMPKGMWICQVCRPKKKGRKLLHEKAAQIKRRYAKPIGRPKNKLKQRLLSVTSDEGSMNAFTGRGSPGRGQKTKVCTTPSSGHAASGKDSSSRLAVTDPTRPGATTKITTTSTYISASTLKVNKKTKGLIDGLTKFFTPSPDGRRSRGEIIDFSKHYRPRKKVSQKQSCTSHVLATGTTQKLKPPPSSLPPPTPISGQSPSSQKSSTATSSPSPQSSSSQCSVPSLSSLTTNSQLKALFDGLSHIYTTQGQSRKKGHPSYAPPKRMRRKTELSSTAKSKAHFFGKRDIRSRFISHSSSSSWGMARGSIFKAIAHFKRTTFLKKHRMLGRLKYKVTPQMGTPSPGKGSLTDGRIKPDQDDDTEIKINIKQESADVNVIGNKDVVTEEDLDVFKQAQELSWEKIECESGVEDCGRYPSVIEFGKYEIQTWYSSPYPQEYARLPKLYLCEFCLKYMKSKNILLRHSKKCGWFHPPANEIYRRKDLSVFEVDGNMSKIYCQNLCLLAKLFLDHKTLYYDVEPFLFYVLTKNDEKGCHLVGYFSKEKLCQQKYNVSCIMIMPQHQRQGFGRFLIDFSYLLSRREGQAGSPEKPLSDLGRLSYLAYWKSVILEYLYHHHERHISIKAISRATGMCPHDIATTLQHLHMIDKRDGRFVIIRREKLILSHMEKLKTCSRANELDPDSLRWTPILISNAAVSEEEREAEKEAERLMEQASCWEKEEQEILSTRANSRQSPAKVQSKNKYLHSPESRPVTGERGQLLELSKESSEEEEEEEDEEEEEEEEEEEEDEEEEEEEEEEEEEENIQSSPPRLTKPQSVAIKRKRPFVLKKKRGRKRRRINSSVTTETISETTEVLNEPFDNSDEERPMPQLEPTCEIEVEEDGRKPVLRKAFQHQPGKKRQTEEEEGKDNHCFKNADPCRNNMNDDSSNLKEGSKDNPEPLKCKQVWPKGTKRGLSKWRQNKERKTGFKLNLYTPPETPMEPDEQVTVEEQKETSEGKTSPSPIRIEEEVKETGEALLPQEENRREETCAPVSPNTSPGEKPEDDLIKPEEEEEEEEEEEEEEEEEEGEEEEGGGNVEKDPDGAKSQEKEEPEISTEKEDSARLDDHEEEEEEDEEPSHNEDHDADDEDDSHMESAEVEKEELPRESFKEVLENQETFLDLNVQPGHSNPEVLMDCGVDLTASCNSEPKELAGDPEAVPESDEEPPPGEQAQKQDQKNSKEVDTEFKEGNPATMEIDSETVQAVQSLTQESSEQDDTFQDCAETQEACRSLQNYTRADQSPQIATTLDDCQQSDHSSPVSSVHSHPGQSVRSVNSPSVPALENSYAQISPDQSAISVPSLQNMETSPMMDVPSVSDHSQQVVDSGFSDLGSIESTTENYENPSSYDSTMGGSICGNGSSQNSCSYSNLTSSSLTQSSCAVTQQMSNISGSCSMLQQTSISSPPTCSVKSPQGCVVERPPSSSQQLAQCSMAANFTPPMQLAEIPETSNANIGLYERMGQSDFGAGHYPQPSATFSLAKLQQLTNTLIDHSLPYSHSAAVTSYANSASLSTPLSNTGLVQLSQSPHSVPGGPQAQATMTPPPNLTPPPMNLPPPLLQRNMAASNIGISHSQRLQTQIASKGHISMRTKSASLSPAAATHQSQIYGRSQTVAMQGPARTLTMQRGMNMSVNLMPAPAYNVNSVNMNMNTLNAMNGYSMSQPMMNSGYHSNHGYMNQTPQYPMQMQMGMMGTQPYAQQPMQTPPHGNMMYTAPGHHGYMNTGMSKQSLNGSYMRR
Chain of KAT6A (Q92794 whole entry): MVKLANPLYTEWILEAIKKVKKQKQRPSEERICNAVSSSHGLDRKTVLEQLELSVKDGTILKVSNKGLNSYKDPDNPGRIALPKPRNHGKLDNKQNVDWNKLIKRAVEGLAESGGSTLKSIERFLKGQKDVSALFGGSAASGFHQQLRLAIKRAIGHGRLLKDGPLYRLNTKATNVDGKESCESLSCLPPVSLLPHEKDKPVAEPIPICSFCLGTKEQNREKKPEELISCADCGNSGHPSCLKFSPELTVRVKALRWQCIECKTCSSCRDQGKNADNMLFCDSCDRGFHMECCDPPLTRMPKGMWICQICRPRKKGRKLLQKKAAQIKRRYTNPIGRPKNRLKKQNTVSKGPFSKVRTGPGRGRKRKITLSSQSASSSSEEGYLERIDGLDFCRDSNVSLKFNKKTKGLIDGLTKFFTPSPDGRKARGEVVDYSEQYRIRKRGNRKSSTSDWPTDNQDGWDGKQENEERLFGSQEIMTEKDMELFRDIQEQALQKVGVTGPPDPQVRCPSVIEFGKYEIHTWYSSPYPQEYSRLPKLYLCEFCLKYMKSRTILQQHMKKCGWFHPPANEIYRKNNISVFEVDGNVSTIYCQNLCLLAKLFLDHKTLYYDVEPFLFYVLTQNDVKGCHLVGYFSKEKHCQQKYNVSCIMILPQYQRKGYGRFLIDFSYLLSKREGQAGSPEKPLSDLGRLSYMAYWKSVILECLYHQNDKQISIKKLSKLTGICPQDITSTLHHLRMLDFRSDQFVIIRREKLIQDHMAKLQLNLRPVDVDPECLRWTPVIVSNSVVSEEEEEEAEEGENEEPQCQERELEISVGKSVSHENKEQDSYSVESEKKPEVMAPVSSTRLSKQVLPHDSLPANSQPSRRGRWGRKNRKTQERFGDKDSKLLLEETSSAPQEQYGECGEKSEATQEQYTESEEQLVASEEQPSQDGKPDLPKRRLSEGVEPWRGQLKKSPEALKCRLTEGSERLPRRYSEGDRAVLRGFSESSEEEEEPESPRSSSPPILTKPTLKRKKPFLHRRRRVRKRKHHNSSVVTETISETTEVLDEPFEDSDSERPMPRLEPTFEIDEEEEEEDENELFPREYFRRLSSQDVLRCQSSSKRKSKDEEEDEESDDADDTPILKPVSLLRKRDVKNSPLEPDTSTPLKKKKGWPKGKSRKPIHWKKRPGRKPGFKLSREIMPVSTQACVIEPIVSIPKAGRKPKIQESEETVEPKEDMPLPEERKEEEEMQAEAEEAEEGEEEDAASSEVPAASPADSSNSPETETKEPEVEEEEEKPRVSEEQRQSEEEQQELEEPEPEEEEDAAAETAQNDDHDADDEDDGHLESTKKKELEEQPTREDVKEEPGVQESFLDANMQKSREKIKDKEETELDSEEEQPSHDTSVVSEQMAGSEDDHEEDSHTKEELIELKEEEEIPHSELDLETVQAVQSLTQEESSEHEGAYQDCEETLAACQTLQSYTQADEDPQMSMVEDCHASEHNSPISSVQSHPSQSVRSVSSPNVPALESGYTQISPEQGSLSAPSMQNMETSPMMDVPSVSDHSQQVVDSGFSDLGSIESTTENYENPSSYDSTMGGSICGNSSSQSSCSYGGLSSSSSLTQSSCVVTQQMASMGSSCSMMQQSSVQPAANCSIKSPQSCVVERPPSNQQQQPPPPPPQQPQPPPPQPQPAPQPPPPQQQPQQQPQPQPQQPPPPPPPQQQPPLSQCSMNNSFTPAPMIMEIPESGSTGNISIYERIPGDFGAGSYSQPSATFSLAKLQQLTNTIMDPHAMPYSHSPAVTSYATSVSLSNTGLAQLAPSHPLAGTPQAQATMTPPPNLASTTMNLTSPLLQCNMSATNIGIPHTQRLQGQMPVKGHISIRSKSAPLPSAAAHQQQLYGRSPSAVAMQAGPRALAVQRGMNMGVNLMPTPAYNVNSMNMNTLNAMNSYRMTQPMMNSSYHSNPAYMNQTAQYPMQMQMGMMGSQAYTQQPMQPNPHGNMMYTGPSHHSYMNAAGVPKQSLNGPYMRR

Row | Structure (SMILES) | Ki [1, 6] | Ki [1, 7] | Ki [2, 8] | Ki [3, 9] | Ki [4, 10] | Ki [5, 11] | Ki ([1]; KAT6a Ki at 1 μM AcCoA, 1 μM AcCoA) | Ki ([2]; KAT6b Ki at 1 μM AcCoA, 1 μM AcCoA) | Ki ([3]; 1 μM AcCoA) | Ki ([4]; KAT7 Ki at 1 μM AcCoA) | Ki ([5]; 1 μM AcCoA)
1 | COc1cccc(OC)c1S(=O)(=O)Nc1noc2cc(Cn3cccn3)c(C)cc12 [Example 27] | 1.17 nM | 0.68 nM | 2.39 nM | 220 nM | 50 nM | 530 nM | – | – | – | – | –
2 | COc1cccc(OC)c1S(=O)(=O)Nc1noc2cc(Cn3cccn3)ccc12 [Example 28] | 4.4 nM | – | 5.06 nM | 3050 nM | 450 nM | 3260 nM | – | – | – | – | –
3 | COc1cc2c(cc1S(=O)(=O)Nc1noc3cc(Cn4cccn4)cc(OC)c13)CCC2 [Example 29] | 0.53 nM | – | 1.4 nM | 180 nM | 60 nM | 1010 nM | – | – | – | – | –
4 | COc1ccccc1S(=O)(=O)Nc1noc2cc(Cn3cccn3)cc(OC)c12 [Example 45, 2-methoxy-N-{4-methoxy-6-[(1H-pyrazol-1-yl)methyl]-1,2-benzoxazol-3-yl}benzene-1-sulfonamide] | – | – | 1.55 nM | – | – | – | 2.28 nM | 2.11 nM | 320 nM | 90 nM | 900 nM
5 | COc1cc(C)ccc1S(=O)(=O)Nc1noc2cc(Cn3cccn3)cc(OC)c12 [Example 47] | 1.14 nM | 0.49 nM | 1.32 nM | 180 nM | 40 nM | 560 nM | – | – | – | – | –
6 | CCOc1cc(C)ccc1S(=O)(=O)Nc1noc2cc(Cn3cccn3)cc(OC)c12 [Example 50] | 0.46 nM | 0.4 nM | 0.98 nM | 260 nM | 20 nM | 350 nM | – | – | – | – | –
7 | CCOc1ccccc1S(=O)(=O)Nc1noc2cc(Cn3cccn3)cc(OC)c12 [Example 51] | 2.71 nM | 1.67 nM | 4.13 nM | 770 nM | 90 nM | 1110 nM | – | – | – | – | –
8 | COc1cc(Cn2cccn2)cc2onc(NS(=O)(=O)c3cccc4c(C)ccnc34)c12 [Example 61] | 0.95 nM | 0.92 nM | 1.56 nM | 200 nM | 40 nM | 540 nM | – | – | – | – | –
9 | COc1cc(Cn2cccn2)cc2onc(NS(=O)(=O)c3ccc(C)cc3F)c12 [Example 65] | 6.04 nM | 4.44 nM | 12.1 nM | 3060 nM | 220 nM | 12500 nM | – | – | – | – | –
10 | COc1cc(Cn2cccn2)cc2onc(NS(=O)(=O)c3cccc(C)c3F)c12 [Example 70] | 2.28 nM | 3.27 nM | 1.9 nM | 410 nM | 140 nM | 3260 nM | – | – | – | – | –
11 | COc1cc(Cl)ccc1S(=O)(=O)Nc1noc2cc(Cn3cccn3)cc(OC)c12 [Example 71] | 1.18 nM | 1.17 nM | 2.81 nM | 320 nM | 30 nM | 1440 nM | – | – | – | – | –
12 | COc1cc(Cn2cccn2)cc2onc(NS(=O)(=O)c3ccc(C)c(C)c3)c12 [Example 72] | 2.86 nM | 2.36 nM | 6.97 nM | 2960 nM | 140 nM | 12500 nM | – | – | – | – | –
13 | COc1cc(Cn2cccn2)cc2onc(NS(=O)(=O)c3c(C)ccc4cccnc34)c12 [Example 73] | 2.31 nM | 1.7 nM | 1.36 nM | 710 nM | 250 nM | 3260 nM | – | – | – | – | –
14 | COc1cc(Cn2cccn2)cc2onc(NS(=O)(=O)c3cc(C)cc(F)c3)c12 [Example 75] | 9.13 nM | 6.42 nM | 13.8 nM | 5700 nM | 320 nM | 12500 nM | – | – | – | – | –
15 | COc1cc(Cn2cccn2)cc2onc(NS(=O)(=O)c3cccc(C)c3C#N)c12 [Example 76] | 7.89 nM | 3.62 nM | 60.1 nM | 4380 nM | 330 nM | 12500 nM | – | – | – | – | –
16 | COc1cc(Cn2cccn2)cc2onc(NS(=O)(=O)c3ccc(C(F)F)cc3)c12 [Example 77] | 8.56 nM | 11.9 nM | 29.6 nM | 8450 nM | 460 nM | 12500 nM | – | – | – | – | –
